Columns and labels:
C481S BTK protein = target: T1, C481S BTK protein (Homo sapiens, UniProt Q06187, C481S); assay: BTK protein degradation assay (Western blotting), C481S BTK; format: cell-based; conditions: concentration range accounting for 50% degradation of C481S BTK protein, 293T BTK MUT (C481S) cells
T1 construct: expressed in transfected cells; host or cells: 293T BTK MUT (C481S) cells
Protocol: TMD-8, RAMOS, or 293T BTK MUT (C481S) cells were treated with the synthesized compounds and measured for intracellular BTK protein levels by Western blotting. The protocol of the experiment using TMD-8 cells is as follows.
The 12-well plates were treated as follows. A 10 mM stock was 1/10 diluted in series with DMSO ([…]) to form final concentrations of 10, 1, 0.1, 0.01, 0.001, and 0.0001 mM. The compounds with such concentrations were applied to cells, followed by harvesting the cells 24 hours later. For a negative control, a 1/10 dilution of DMSO in the medium (3 mL DMSO+27 mL medium) was used.
The 1-mL cell culture in each well was passed many times through a pipette and then transferred into a 1.5-mL microtube before centrifugation (500 g, 5 min, 4° C.). The supernatant was discarded and the cell pellet was washed with PBS. After centrifugation (500 g, 5 min, 4° C.) again, the supernatant was discarded and the cell pellet was taken.
A lysis buffer was prepared as follows. RIPA buffer (Biosesang, RC2038-050-00)+0.5 mM PMSF (SIGMA, P7626)+1×Protease/Phosphatase Inhibitor (Cell signaling, 5872S) was added in an amount […] per well and left for 30 minutes on ice (vortexing at 0 and 30 minutes) before sonication (5 cycles of pulse for 10 seconds and rest for 30 seconds, 70% amplification). The supernatant obtained by centrifugation (15000 g, 15 min, 4° C.) was transferred into a new microtube. Cells in each well of 96-well plates were 1/2 diluted with the RIPA buffer and incubated at 37° C. for 30 minutes with […] of a 50:1 mixture of BCA reagents A and B in BCA Protein Assay Kit (iNtRON, 21071). After being cooled for 10 minutes, the 96-well plates were measured for absorbance at 562 nm on the BioTek, SYNERGY H1 microplate reader. Samples were prepared by protein quantification based on the absorbance measurements and then boiled at 70° C. for 10 minutes. The sample buffer used in the case was prepared by mixing a NuPAGE or a Bolt 4× sample buffer (Invitrogen) and its 10× sample reducing agent depending on the gel to be used, and protein dilution was made in a RIPI buffer.
The samples were loaded in the same amount into a NuPAGE or Bolt Bis-tris 4-12% gradient gel and allowed to run therein (200 V, 35 minutes). The separated proteins were transferred onto a […] NC membrane, using Trans-blot Turbo (BIO-RAD) (1.3 A constant, 25V limit, 15 minutes). The membrane was blocked at room temperature for 1 hour with skim milk or Intercept Blocking Buffer (LI-COR, 927-60001):0.1% TBST=1:1. The membrane was incubated with Anti BTK Rabbit (1:1,000 in 5% skim milk/0.2% TBST, size: 77 kDa, Cell signaling Technology) at 4° C. overnight O/N or at room temperature for 2 hours and with Anti GAPDH Rabbit (1:10,000 in 5% BSA/0.2% TBST, size: 36 kDa, GENETEX) and Anti β-actin mouse (1:10,000 in 5% BSA/0.2% TBST, RT, size: 43 kDa, GENETEX) at room temperature for 1 or 3 hours. Then, the membrane was washed three times with 0.5% TBST for 5 minutes each time before incubation with the second antibody Anti-Rabbit IgG (1:5,000 in 5% Skim milk/TBST, CST), IRDye® 800CW Goat anti-Rabbit IgG Secondary Antibody (1:10,000 in 5% skim/TBST, RT 45 min), or IRDye® 680RD Goat anti-Mouse IgG Secondary Antibody (1:10,000 in 5% skim/TBST, RT 45 min) for 45 minutes at room temperature in a rocker. The membrane was washed five times with 0.5% TBST for 5 minutes in each time, followed by detection with LI-COR, Odyssey. In this regard, the detection proceeded, as it was, for house-keeping genes while using SuperSignal West Pico PLUS Chemiluminescent Substrate or SuperSignal West femto Maximum Sensitivity Substrate for BTK detection.
According to the concentration ranges of compounds accounting for 50% degradation of WT BTK protein and C481S BTK protein, the activities are expressed as +++(0.0001-0.01 μM), ++(0.01-1 μM), +(1-10 μM), −(>10 μM), and NT (not tested). […]

WT BTK protein = target: T2, WT BTK protein (Homo sapiens, UniProt Q06187); assay: BTK protein degradation assay (Western blotting), WT BTK; format: cell-based; conditions: concentration range accounting for 50% degradation of WT BTK protein, TMD-8 or RAMOS cells, 24 hours
T2 construct: measured for intracellular BTK protein levels by Western blotting; endogenous in cells; host or cells: TMD-8 or RAMOS cells
Outline: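 TMD-8 cells (1×10^6 cells/mL) treated 24 h with compound serial dilutions, then lysed in RIPA. Equal protein loads analysed by Western blot for BTK with GAPDH/β-actin as loading controls; activity binned by concentration giving 50% WT BTK degradation.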

T2 sequence (Q06187 whole entry): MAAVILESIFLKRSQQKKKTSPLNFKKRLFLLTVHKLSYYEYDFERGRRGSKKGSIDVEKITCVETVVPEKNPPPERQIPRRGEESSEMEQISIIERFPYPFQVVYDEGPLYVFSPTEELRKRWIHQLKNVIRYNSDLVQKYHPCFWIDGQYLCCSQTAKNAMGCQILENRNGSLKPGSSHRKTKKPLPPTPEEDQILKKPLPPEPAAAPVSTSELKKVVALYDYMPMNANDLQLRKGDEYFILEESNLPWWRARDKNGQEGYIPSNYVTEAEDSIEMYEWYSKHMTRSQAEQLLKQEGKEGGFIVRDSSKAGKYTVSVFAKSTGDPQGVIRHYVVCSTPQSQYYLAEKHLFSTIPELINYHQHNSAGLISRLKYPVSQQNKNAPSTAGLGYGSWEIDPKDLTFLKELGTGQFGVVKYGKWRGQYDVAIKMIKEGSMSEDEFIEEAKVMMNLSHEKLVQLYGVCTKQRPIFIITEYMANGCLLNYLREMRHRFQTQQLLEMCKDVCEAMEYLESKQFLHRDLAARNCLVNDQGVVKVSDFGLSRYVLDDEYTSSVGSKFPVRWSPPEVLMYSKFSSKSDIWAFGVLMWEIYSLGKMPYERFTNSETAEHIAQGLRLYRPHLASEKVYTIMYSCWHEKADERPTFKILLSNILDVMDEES
T1 sequence (Q06187 whole entry C481S): as the sequence (Q06187 whole entry) above, with C481S counted along it

Compound | DC50 (C481S BTK protein) [nM] | DC50 (WT BTK protein) [nM]
Cc1cccc(C)c1Nc1nn(C)c2nc(Nc3ccc4c(c3)CN(C(=O)CCOCCOCCOCCOCCNC(=O)COc3cccc5c3C(=O)N(C3CCC(=O)NC3=O)C5=O)CC4)ncc12 (stereo not drawn) [Compound 17, N-(15-(7-((3-((2,6-Dimethylphenyl)amino)-1-methyl-1H-pyrazolo[3,4-d]pyrimidin-6-yl)amino)-3,4-dihydroisoquinolin-2 (1H)-yl)-15-oxo-3,6,9,12-tetraoxapentadecyl)-2-((2-(2,6-dioxopiperidin-3-yl)-1,3-dioxoisoindolin-4-yl)oxy)acetamide] | > 10000 | 0.1 to 10
Cc1cccc(C)c1Nc1nn(C)c2nc(Nc3ccc4c(c3)CN(CCOCCNC(=O)CN3CCN(c5ccc6c(c5)C(=O)N(C5CCC(=O)NC5=O)C6=O)CC3)CC4)ncc12 (stereo not drawn) [Compound 20, N-(2-(2-(7-((3-((2,6-Dimethylphenyl)amino)-1-methyl-1H-pyrazolo[3,4-d]pyrimidin-6-yl)amino)-3,4-dihydroisoquinolin-2 (1H)-yl)ethoxy)ethyl)-2-(4-(2-(2,6-dioxopiperidin-3-yl)-1,3-dioxoisoindolin-5-yl)piperazin-1-yl)acetamide] | 1000 to 10000 | 0.1 to 10
Cc1cccc(C)c1Nc1nn(C)c2nc(Nc3ccc4c(c3)CN(C(=O)COCCOCCNC(=O)C3CCN(c5cccc6c5C(=O)N(C5CCC(=O)NC5=O)C6=O)CC3)CC4)ncc12 (stereo not drawn) [Compound 4, N-(2-(2-(2-(7-((3-((2,6-Dimethylphenyl)amino)-1-methyl-1H-pyrazolo[3,4-d]pyrimidin-6-yl)amino)-3,4-dihydroisoquinolin-2 (1H)-yl)-2-oxoethoxy)ethoxy)ethyl)-1-(2-(2,6-dioxopiperidin-3-yl)-1,3-dioxoisoindolin-4-yl)piperidine-4-carboxamide] | 1000 to 10000 | 10 to 1000
Cc1cccc(C)c1Nc1nn(C)c2nc(Nc3ccc4c(c3)CN(CC3CCN(C(=O)CN5CCN(c6ccc7c(c6)C(=O)N(C6CCC(=O)NC6=O)C7=O)CC5)CC3)CC4)ncc12 (stereo not drawn) [Compound 31, 5-(4-(2-(4-((7-((3-((2,6-Dimethylphenyl)amino)-1-methyl-1H-pyrazolo[3,4-d]pyrimidin-6-yl)amino)-3,4-dihydroisoquinolin-2 (1H)-yl)methyl)piperidin-1-yl)-2-oxoethyl)piperazin-1-yl)-2-(2,6-dioxopiperidin-3-yl)isoindoline-1,3-dione] | 10 to 1000 | 0.1 to 10
Cc1cccc(C)c1Nc1nn(C)c2nc(Nc3ccc4c(c3)CN(C(=O)c3cn(CCOCCOCCOCCNC(=O)CNc5cccc6c5C(=O)N(C5CCC(=O)NC5=O)C6=O)nn3)CC4)ncc12 (stereo not drawn) [Compound 19, N-(2-(2-(2-(2-(4-(7-((3-((2,6-Dimethylphenyl)amino)-1-methyl-1H-pyrazolo[3,4-d]pyrimidin-6-yl)amino)-1,2,3,4-tetrahydroisoquinoline-2-carbonyl)-1H-1,2,3-triazol-1-yl)ethoxy)ethoxy)ethoxy)ethyl)-2-((2-(2,6-dioxopiperidin-3-yl)-1,3-dioxoisoindolin-4-yl)amino)acetamide] | > 10000 | 10 to 1000
Cc1cccc(C)c1Nc1nn(C)c2nc(Nc3ccc4c(c3)CN(CC3CCN(Cc5ccc6nnn(C7CCC(=O)NC7=O)c(=O)c6c5)CC3)CC4)ncc12 (stereo not drawn) [Compound 46] | 10 to 1000 | 10 to 1000
Cc1cccc(C)c1Nc1nn(C)c2nc(Nc3ccc4c(c3)CN(CC3CCN(C(=O)C5CCN(c6ccc7c(=O)n(C8CCC(=O)NC8=O)nnc7c6)CC5)CC3)CC4)ncc12 (stereo not drawn) [Compound 61, 3-(7-(4-(4-((7-((3-((2,6-Dimethylphenyl)amino)-1-methyl-1H-pyrazolo[3,4-d]pyrimidin-6-yl)amino)-3,4-dihydroisoquinolin-2 (1H)-yl)methyl)piperidine-1-carbonyl)piperidin-1-yl)-4-oxobenzo[d][1,2,3]triazin-3 (4H)-yl)piperidin-2,6-one] | 0.1 to 10 | 0.1 to 10
Cc1cccc(C)c1Nc1nn(C)c2nc(Nc3ccc4c(c3)CN(C(=O)C3CCN(c5ccc6c(c5)C(=O)N(C5CCC(=O)NC5=O)C6=O)CC3)CC4)ncc12 (stereo not drawn) [Compound 56, 5-(4-(7-((3-((2,6-Dimethylphenyl)amino)-1-methyl-1H-pyrazolo[3,4-d]pyrimidin-6-yl)amino)-1,2,3,4-tetrahydroisoquinoline-2-carbonyl)piperidin-1-yl)-2-(2,6-dioxopiperidin-3-yl)isoindoline-1,3-dione] | 10 to 1000 | 10 to 1000
Cc1cccc(C)c1Nc1nn(C)c2nc(Nc3ccc4c(c3)CN(CC3CCN(c5ccc6c(=O)n(C7CCC(=O)NC7=O)nnc6c5)CC3)CC4)ncc12 (stereo not drawn) [Compound 53, 3-(7-(4-((7-((3-((2,6-Dimethylphenyl)amino)-1-methyl-1H-pyrazolo[3,4-d]pyrimidin-6-yl)amino)-3,4-dihydroisoquinolin-2 (1H)-yl)methyl)piperidin-1-yl)-4-oxobenzo[d][1,2,3]triazin-3 (4H)-yl)piperidin-2,6-one] | 10 to 1000 | 0.1 to 10
COc1ccc(C(=O)N2CCC(CC(=O)N3CCc4cc(Nc5ncc6c(Nc7c(C)cccc7C)nn(C)c6n5)ccc4C3)CC2)cc1N1CCC(=O)NC1=O [Compound 111, 1-(5-(4-(2-(6-((3-((2,6-Dimethylphenyl)amino)-1-methyl-1H-pyrazolo[3,4-d]pyrimidin-6-yl)amino)-3,4-dihydroisoquinolin-2 (1H)-yl)-2-oxoethyl)piperidine-1-carbonyl)-2-methoxyphenyl)dihydropyrimidine-2,4 (1H,3H)-dione] |  | 10 to 1000
Cc1cccc(C)c1Nc1nn(C)c2nc(Nc3ccc(N4CCN(C[C@H]5CCN(c6ccc7c(c6)C(=O)N(C6CCC(=O)NC6=O)C7=O)C5)CC4)nc3)ncc12 (stereo partly drawn) [Compound 154, 5-((R)-3-((4-(5-((3-((2,6-Dimethylphenyl)amino)-1-methyl-1H-pyrazolo[3,4-d]pyrimidin-6-yl)amino)pyridin-2-yl)piperazin-1-yl)methyl)pyrrolidin-1-yl)-2-(2,6-dioxopiperidin-3-yl)isoindoline-1,3-dione] |  | 0.1 to 10
Cc1cccc(C)c1Nc1nn(C)c2nc(Nc3ccc4c(c3)CN(C(=O)C3CCN(c5ccc6c(c5)n(C)c(=O)n6C5CCC(=O)NC5=O)CC3)CC4)ncc12 (stereo not drawn) [Compound 264, 3-(5-(4-(7-((3-((2,6-Dimethylphenyl)amino)-1-methyl-1H-pyrazolo[3,4-d]pyrimidin-6-yl)amino)-1,2,3,4-tetrahydroisoquinoline-2-carbonyl)piperidin-1-yl)-3-methyl-2-oxo-2,3-dihydro-1H-benzo[d]imidazol-1-yl)piperidin-2,6-one] |  | 0.1 to 10
